The test system of data set [1] is Mus musculus. The experiment in a line: In vivo inhibition of IDO1 in wild type C57BL/6 mouse assessed as reduction in kynurenine levels in plasma at 100 mg/kg, po administered via gavage measured up to 1 hr by LC-MS/MS analysis. The data set is classed as functional, organism-based.
A further data set concerns A549. The data set is described as follows: Antiproliferative activity against human A549 cells after 48 hrs by CCK-8 assay. The data set is classed as functional, cell-based. The following applies: A549, 48 h.
Another data set has as its system CT26. The experiment in a line: Antiproliferative activity against mouse CT26 cells after 48 hrs by CCK-8 assay. The conditions noted are these: CT26, 48 h. It counts as functional, cell-based. (In general: Tetrazolium dyes change colour on reduction, which living cells bring about.)
Data set [2] concerns Lewis lung carcinoma cell line. The data set is described as follows: Antiproliferative activity against mouse LLC cells after 48 hrs by CCK-8 assay. It counts as functional, cell-based.
For data set [3], the system named is Lewis lung carcinoma cell line. The data set is described as follows: Antitumor activity against mouse LLC cells implanted in immunocompetent C57BL/6 mouse assessed as tumor growth inhibition at 100 mg/kg, po bid administered via gavage for 14 consecutive days measured every 4 days relative to control. The data set is classed as functional. The conditions noted are these: 96 h, read-out: TGI.

For data set [4], the system named is Mus musculus. The experiment in a line: In vivo inhibition of IDO1 in wild type C57BL/6 mouse assessed as reduction in kynurenine levels in plasma at 100 mg/kg, po administered via gavage after 8 hrs by LC-MS/MS analysis. It counts as functional. The following applies: C57BL/6, po.
For a further data set, the system named is HT-29. The data set is described as follows: Antiproliferative activity against human HT-29 cells after 48 hrs by CCK-8 assay. The conditions noted are these: HT-29, 48 h. The data set is classed as functional, cell-based.
Data set [5] deals with HCT-116. The data set is described as follows: Antiproliferative activity against human HCT116 cells after 48 hrs by CCK-8 assay. It counts as functional, cell-based. The conditions noted are these: HCT-116, 48 h.
A further data set deals with Histone deacetylase 1 (Homo sapiens, UniProt Q13547). The experiment in a line: Inhibition of recombinant human full length HDAC1 using fluorogenic substrate 3 after 30 mins by fluorescence assay.
Histone deacetylase 1, sequence (Q13547 whole entry, the tested form may be a part): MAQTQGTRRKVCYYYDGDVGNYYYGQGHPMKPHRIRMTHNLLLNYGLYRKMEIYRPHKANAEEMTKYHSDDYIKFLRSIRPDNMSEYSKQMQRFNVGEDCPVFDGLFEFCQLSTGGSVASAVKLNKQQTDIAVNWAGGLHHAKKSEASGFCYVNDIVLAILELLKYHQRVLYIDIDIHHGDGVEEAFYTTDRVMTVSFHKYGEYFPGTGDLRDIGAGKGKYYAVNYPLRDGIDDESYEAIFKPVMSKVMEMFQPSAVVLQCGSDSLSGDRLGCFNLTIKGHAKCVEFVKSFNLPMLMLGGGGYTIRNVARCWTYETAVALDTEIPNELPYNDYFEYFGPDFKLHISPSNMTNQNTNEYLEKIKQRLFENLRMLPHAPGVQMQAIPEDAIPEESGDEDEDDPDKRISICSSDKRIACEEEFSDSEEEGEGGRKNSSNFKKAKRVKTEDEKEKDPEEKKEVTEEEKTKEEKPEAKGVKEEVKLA
Data set [6] has as its target T1, Indoleamine 2,3-dioxygenase 1 (Homo sapiens, UniProt P14902). The experiment in a line: Inhibition of recombinant human GST-tagged IDO1 (1 to 404 residues) at 1 uM using D-Tryptophan as substrate relative to control.
Target sequence in this assay (P14902 whole entry, looked up, the tested form may be a part): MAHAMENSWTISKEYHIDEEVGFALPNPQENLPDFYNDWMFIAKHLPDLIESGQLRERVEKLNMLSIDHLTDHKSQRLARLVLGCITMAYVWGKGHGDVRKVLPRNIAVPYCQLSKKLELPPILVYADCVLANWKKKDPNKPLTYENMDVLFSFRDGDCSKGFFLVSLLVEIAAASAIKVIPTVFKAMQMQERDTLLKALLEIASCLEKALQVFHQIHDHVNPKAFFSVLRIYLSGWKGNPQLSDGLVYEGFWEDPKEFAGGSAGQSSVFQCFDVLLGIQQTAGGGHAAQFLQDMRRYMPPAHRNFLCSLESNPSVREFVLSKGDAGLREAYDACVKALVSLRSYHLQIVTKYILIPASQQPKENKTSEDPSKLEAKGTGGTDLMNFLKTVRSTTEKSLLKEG
The target in data set [7] is T1, Indoleamine 2,3-dioxygenase 1. The experiment in a line: Inhibition of recombinant human GST-tagged IDO1 (1 to 404 residues) using D-Tryptophan as substrate.
Target sequence in this assay (P14902 whole entry, the tested form may be a part): as the sequence (P14902 whole entry, looked up, the tested form may be a part) above
The nature of data set [8]: Half life in immunocompetent C57BL/6 mouse implanted with mouse LLC cells at 100 mg/kg, po bid administered via gavage. The following applies: in vivo. The data set is classed as ADME, organism-based.
A short description of data set [9]: Cmax in Sprague-Dawley rat at 100 mg/kg, po administered as single dose via gavage by LC-MS/MS analysis. The conditions noted are these: in vivo. Details: dose 100 mg/kg, route oral. It counts as ADME, organism-based.
A short description of data set [10]: Half life in Sprague-Dawley rat at 100 mg/kg, po administered as single dose via gavage by LC-MS/MS analysis. The data set is classed as ADME, organism-based. The following applies: in vivo.
The nature of data set [11]: AUC (0 to infinity) in Sprague-Dawley rat at 100 mg/kg, po administered as single dose via gavage by LC-MS/MS analysis. It counts as ADME, organism-based. Further details: dose 100 mg/kg, time infinity, route oral. The following applies: in vivo.
Data set [12] can be described thus: AUC in immunocompetent C57BL/6 mouse implanted with mouse LLC cells at 100 mg/kg, po bid administered via gavage. The conditions noted are these: in vivo. The data set is classed as ADME, organism-based.
Data set [13] in a line: Tmax in Sprague-Dawley rat at 100 mg/kg, po administered as single dose via gavage by LC-MS/MS analysis. The conditions noted are these: in vivo. It counts as ADME, organism-based.
The subject of data set [14] is HCT-116. The data set is described as follows: Induction of apoptosis in human HCT116 cells at 5 uM after 48 hrs by Annexin V-FITC/propidium iodide staining based flow cytometry relative to control. The data set is classed as functional. (A flow cytometer gives signals particle by particle.)
Data set [15] has as its system HCT-116. The data set is described as follows: Induction of apoptosis in human HCT116 cells at 10 uM after 48 hrs by Annexin V-FITC/propidium iodide staining based flow cytometry relative to control. The data set is classed as functional.
Data set [16] has as its system HCT-116. The data set is described as follows: Induction of apoptosis in human HCT116 cells at 20 uM after 48 hrs by Annexin V-FITC/propidium iodide staining based flow cytometry relative to control. It counts as functional.
The test system of data set [17] is HCT-116. The experiment in a line: Cell cycle arrest in human HCT116 cells assessed as accumulation at G2/M phase up to 48 hrs by propidium iodide staining based flow cytometry. It counts as functional.
Data set [18] deals with HCT-116. The experiment in a line: Induction of apoptosis in human HCT116 cells after 48 hrs by Annexin V-FITC/propidium iodide staining based flow cytometry. It counts as functional, cell-based.

Active and inactive are the calls of the source. The calls are words filed in the database; no cut-off is given here. A value given as a limit tells only on which side of the number the result lay.

Regarding `NS(=O)(=O)NCCNc1nonc1/C(=N/O)Nc1ccc(F)c(Br)c1` [EPACADOSTAT], the inhibition (in general, the percentage by which the read-out fell short of the control) in the data set on Mus musculus [1] was “Active”. Also, the IC50 (with A549; in the data set on CT26; in [2]; in the data set with HT-29; in the data set with HCT-116 [5]) was more than 100 µM in each case. The inhibition in vivo at 100 mg/kg in data set [3] came to 54.3%; with Mus musculus [4], 50%.

Turning to `Nc1ccccc1NC(=O)c1ccc(C(=O)NCCNc2nonc2/C(=N/O)Nc2ccc(F)c(Br)c2)s1`, the IC50 (in general, the point on the concentration scale where inhibition reaches its midpoint) in the data set on A549 was determined as 14.5 µM; on Histone deacetylase 1, 1.43 µM; with CT26 it was 38.8 µM; in data set [2], 18.3 µM; with HT-29 it was 20.3 µM; in the data set on HCT-116 [5], 7.12 µM. The inhibition in data set [6] is 76%.

For the compound `O=C(CCCCCC(=O)NCCNc1nonc1/C(=N/O)Nc1ccc(F)c(Br)c1)NO`, the IC50 in the data set with A549 was found to be 40.7 µM; on Histone deacetylase 1, 0.0092 µM; in the data set on CT26, 95.5 µM; in data set [2], 90.1 µM; in data set [7], 0.113 µM; in the data set on HT-29, 28.7 µM. In the data set with HCT-116 [5], this compound displayed an IC50 of 17.5 µM.

On to `O=C(CCCC(=O)NCCNc1nonc1/C(=N/O)Nc1ccc(F)c(Br)c1)NO`, for which the IC50 in the data set on A549 was more than 100 µM; on Histone deacetylase 1 it was 0.121 µM; with CT26 it was more than 100 µM; in [2], more than 100 µM; in data set [7], 0.133 µM; in the data set with HT-29 it was more than 100 µM. For the same compound, the half-maximal inhibitory concentration (IC50) in the data set on HCT-116 [5] was 80.2 µM.

As for `O=C(CCCCCn1cc(-c2ccc(C(=O)NCCNc3nonc3/C(=N/O)Nc3ccc(F)c(Br)c3)cc2)nn1)NO`, the IC50 with A549 is more than 100 µM; at Histone deacetylase 1 it was 0.0665 µM; with CT26, more than 100 µM; in data set [2], more than 100 µM; in the data set with HT-29 it was more than 100 µM; with HCT-116 [5], more than 100 µM. The inhibition in data set [6] came out at 87%.

For the compound `NS(=O)(=O)NCCNc1nonc1C(=NO)Nc1ccc(F)c(Br)c1` [EPACADOSTAT], the half-life in [8] and in data set [10] was 4.5 h each time. Besides, the Cmax (as a rule, the maximum level reached in the sampled fluid or tissue) in data set [9] turned out to be 5560 ng/mL. Moreover, the AUC(0-inf) (as a rule, total exposure, with the tail of the curve extrapolated) in data set [11] was found to be 30700 ng·h/mL. Also, the AUC (in general, the area under the concentration-time curve, a measure of exposure) in [12] came to 70.2 µM·h. Besides, the Tmax (commonly the time at which the peak concentration occurs) in data set [13] stood at 0.8 h.

`O=C(/C=C/c1ccc(C(=O)NCCNc2nonc2/C(=N/O)Nc2ccc(F)c(Br)c2)cc1)NO`: the IC50 in the data set on A549 came to 25.6 µM; on Histone deacetylase 1 it was 0.0462 µM; in the data set with CT26 it was 12.8 µM; in data set [2], 21.6 µM; in data set [7], 0.168 µM; in the data set with HT-29, 14.2 µM. The compound also yielded an IC50 in the data set with HCT-116 [5] of 5.89 µM. The Activity is 26.7% in the data set with HCT-116 [14], 45.4% in the data set on HCT-116 [15], 61.3% in the data set with HCT-116 [16] and “Dose-dependent effect” in the data set with HCT-116 [18]. Also, the outcome with HCT-116 [17] was Active.

Regarding `Nc1ccccc1NC(=O)c1cccc(C(=O)NCCNc2nonc2/C(=N/O)Nc2ccc(F)c(Br)c2)c1`, the concentration for half-maximal inhibition (IC50) was found to be 27.8 µM in the data set with A549; 0.633 µM at Histone deacetylase 1; 25.5 µM in the data set on CT26; 31.4 µM in data set [2]; 46.4 µM in the data set with HT-29; 16.2 µM in the data set on HCT-116 [5]. In addition, in data set [6], the inhibition is 79%.

With `O=C(NO)c1ccc(C(=O)NCCNc2nonc2/C(=N/O)Nc2ccc(F)c(Br)c2)cc1`, the IC50 is 89.8 µM in the data set on A549; 0.262 µM at Histone deacetylase 1; more than 100 µM with CT26; more than 100 µM in [2]; 68 µM with HT-29; 28.1 µM with HCT-116 [5]. Besides, the inhibition in data set [6] came out at 95%.

Regarding `O=C(CCCCCCC(=O)NCCNc1nonc1/C(=N/O)Nc1ccc(F)c(Br)c1)NO`, the IC50 with A549 came out at 36 µM; on Histone deacetylase 1, 0.0477 µM; with CT26, 97.5 µM; in data set [2], 56.6 µM; in data set [7] it was 0.14 µM; in the data set with HT-29 it was 14.9 µM. In the data set on HCT-116 [5], the IC50 stood at 4.7 µM. For the same compound, the Activity in the data set on HCT-116 [14] was 25.5%; with HCT-116 [15] it was 31.1%; in the data set on HCT-116 [16], 44.5%; in the data set with HCT-116 [18], “Dose-dependent effect”. Further, the result in the data set on HCT-116 [17] was Active.

For the compound `O=C(CCCCCCn1cc(-c2ccc(C(=O)NCCNc3nonc3/C(=N/O)Nc3ccc(F)c(Br)c3)cc2)nn1)NO`, the IC50 came to 45.5 µM in the data set on A549; 0.0235 µM at Histone deacetylase 1; 90.2 µM with CT26; 36 µM in [2]; 0.21 µM in data set [7]; 23.9 µM with HT-29. In addition, inhibition with HCT-116 [5] was half-maximal at 29.4 µM (IC50).

Turning to `O=C(/C=C/c1cccc(C(=O)NCCNc2nonc2/C(=N/O)Nc2ccc(F)c(Br)c2)c1)NO`, the half-inhibitory concentration (IC50) in the data set on A549 amounted to 41.7 µM; on Histone deacetylase 1, 0.0705 µM; in the data set with CT26 it was 38.9 µM; in [2], 53.3 µM; in [7] it was 0.027 µM; with HT-29, 23.3 µM. The compound also came in with an IC50 in the data set on HCT-116 [5] of 12.4 µM.

Regarding `O=C(CCCCn1cc(-c2ccc(C(=O)NCCNc3nonc3/C(=N/O)Nc3ccc(F)c(Br)c3)cc2)nn1)NO`, the IC50 is more than 100 µM in the data set on A549; 0.895 µM at Histone deacetylase 1; more than 100 µM in the data set on CT26; more than 100 µM in data set [2]; more than 100 µM in the data set on HT-29; 37.5 µM with HCT-116 [5]. In addition, the inhibition in data set [6] worked out at 88%.

Turning to `O=C(CCCCC(=O)NCCNc1nonc1/C(=N/O)Nc1ccc(F)c(Br)c1)NO`, the IC50 with A549 is more than 100 µM; at Histone deacetylase 1, 0.308 µM; in the data set with CT26, more than 100 µM; in data set [2] it was more than 100 µM; in data set [7], 0.123 µM; in the data set on HT-29, more than 100 µM. In addition, the half-inhibitory concentration (IC50) in the data set on HCT-116 [5] amounted to 85.4 µM.

With `Nc1ccccc1NC(=O)c1ccc(C(=O)NCCNc2nonc2/C(=N/O)Nc2ccc(F)c(Br)c2)cn1`, the IC50 in the data set with A549 was 20.7 µM; on Histone deacetylase 1, 0.604 µM; in the data set on CT26 it was 23.3 µM; in [2] it was 15.1 µM; in data set [7], 0.26 µM; in the data set on HT-29, 12.2 µM. The compound also came in with an IC50 in the data set on HCT-116 [5] of 6.36 µM.
